System: ANP-System
Assay: Acute hypervolaemia model in the rat (volume load, urine collected over one hour)
Format: in vivo
Settings: Ratte; for Steigerung der Na⁺-Ausscheidung: 10 mg/kg p.o. in Tylose-Suspension, acute volume load by 15 ml/kg physiological saline into the tail vein, urine collected over one hour
From the text: Die ausgewählten erfindungsgemäßen Verbindungen zeigen ein nicht vorhersehbares, wertvolles pharmakologisches Wirkspektrum. Im Vergleich zu strukturähnlichen, bekannten Dihydropyridinen wie z.B. in DOS 2 228 377 beschriebenen Vertretern, zeigen die erfindungsgemäßen Verbindungen sowohl quantitativ als auch qualitativ ein anderes Wirkungsspektrum. Neben ihrer calciumantagonistischen Wirkung steigern sie die ANP-abhängige Natriurese bei Stimulation des ANP-Systems durch Volumenbelastung. Diese zusätzliche Wirkkomponente wurde in einem Modell der akuten Hypervolämie an der Ratte nachgewiesen: Die Testsubstanzen wurden oral in Tylose-Suspension verabreicht. Durch Injektion von 15 ml/kg physiologischer Kochsalzlösung in die Schwanzvene wurde eine akute Volumenbelastung ausgelöst und anschließend der Urin über eine Stunde gesammelt. Unerwarteterweise verstärken die erfindungsgemäßen Verbindungen die Natriumausscheidung. Gleichzeitig wird die Ausscheidung von cGMP, das einen spezifischen Marker für die Aktivierung des ANP-Systems darstellt, erhöht (z.B. um 100 % bei Beispiel 19).

SMILES	Steigerung der Na⁺-Ausscheidung	Ausscheidung von cGMP erhöht (oral in Tylose-Suspension, acute volume load by 15 ml/kg saline i.v., urine over one hour, dose not given)
COC(=O)C1=C(C)NC(C)=C(C(=O)NC2CC2)C1c1ccccc1OCCCOc1ccccc1 (stereo not shown) [Beispiel 2]	80%	
COC(=O)C1=C(C)NC(C)=C(C(=O)NC2CCCC2)C1c1ccccc1OC (stereo not shown) [Beispiel 11]	95%	
COC(=O)C1=C(C)NC(C)=C(C(=O)NC2CC2)C1c1ccccc1OC(F)(F)F (stereo not shown) [Beispiel 19]	100%	100%

— patent EP0493782A2, “Novel dihydropyridine amides, process for their preparation and drugs containing them” (BAYER AG, priority 1991, dated 1992)
